Measurements: US11298431B2, “Method for labeling radioisotope radiolabeling compound and kit comprising the same for labeling radioisotope” (KOREA ATOMIC ENERGY RESEARCH INSTITUTE, priority 2018, dated 2022)

What was measured:
[1] = In vitro stability in various media at 37° C. (radio-HPLC); type: in vitro ADME
From the text: (§1) For synthesis of ^125I-labeled aldehyde [^125I] 5, specific radioactive analogue 4-iodo-N-(4-oxobutyl) benzamide) 5 was synthesized by coupling of 4-aminobutyraldehyde diethyl acetal with 4-iodobenzoic acid under basic conditions and a subsequent reduction under acidic conditions (Scheme 1). The radioiodination shown in 6 was achieved using [^125I] NaI and chloramines-T as oxidants (Scheme 3). The radioiodination reaction was terminated by adding an aqueous solution of sodium metabisulfite. After HPLC purification of the crude product, [^125I] 5 was obtained with high radiochemical yield (72±6%, n=5). The specific activity was 45 GBq/μmol and the chemical purity was more than 99%. In the HPLC chromatogram of the crude mixture, the main product [^125I] 5 was clearly shown at 22.6 minutes (FIG. 1). Radio-labeling reactions were performed by using various amounts of radioisotopes (100 μCi to 1 mCi), but the radiochemical results were consistent. The radioactive iodine compound [^125I] […] The compound [^125I]

[2] = Storage stability of the radioiodinated aldehyde in the refrigerator; type: physicochemical
From the text: as §1

time shown to be stable in medium ([1]; PBS): ≥ 24 h
time shown to be stable in medium ([1]; mouse serum): ≥ 24 h
time shown to be stable in medium ([1]; saline): ≥ 24 h
hydrolysis ([2]; compared with active ester-based prosthetic groups (Bolton-Hunter-reagent)): not hydrolyzed
time found to be stable in the refrigerator ([2]; refrigerator (4° C.)): more than 6 months
Compound: O=CCCCNC(=O)c1ccc([125I])cc1 [[^125I] 5]
